Data set [1] has as its system Paecilomyces lilacinus. Briefly: Antifungal activity against Paecilomyces lilacinus 165E10 assessed as reduction in fungal growth incubated for 48 hrs by microplate reader analysis. Format: functional. The note with it: Purpureocillium lilacinum.
Data set [2] relates to Candida albicans. Description: Antifungal activity against Candida albicans SC5314 assessed as inhibition in fungal growth incubated for 48 hrs in presence of 10% serum by microplate reader analysis. The format is functional.
Data set [3] deals with Candida parapsilosis. Description: Antifungal activity against Candida parapsilosis 7 assessed as inhibition in fungal growth incubated for 48 hrs by microplate reader analysis. Format: functional. The settings on record: Lodderomyces parapsilosis.
Data set [4] has as its system [Candida] auris. Briefly: Antifungal activity against multidrug-resistant Candida auris 384 assessed as inhibition in fungal growth incubated for 48 hrs by microplate reader analysis. The format is functional. The note with it: Candidozyma auris.
Data set [5] relates to Candida albicans. Description: Antifungal activity against fluconazole-resistant Candida albicans SC5314 infected in pig cornea assessed as suppression of fungal growth at 0.1 % administered post fungal infection measured after 4 days by microscopic analysis. The format is functional, organism-based. The note with it: time 4.0 day.
Data set [6] has as its system Candida albicans. Description: Antifungal activity against Candida albicans SC5314 infected in pig cornea assessed as suppression of fungal growth at 0.1 % administered post fungal infection measured after 4 days by microscopic analysis. The format is functional, organism-based. The settings on record: time 4.0 day.
Data set [7] in a line: Toxicity against human skin model at 10 to 1000 uM. Format: tissue-based, Skin of body. The settings on record: dose 10-1000 µM.
Data set [8] can be described thus: Toxicity against human eye model assessed as irritation at 10 to 1000 uM. Format: tissue-based. The settings on record: dose 10-1000 µM.
Data set [9] relates to Aspergillus fumigatus. Briefly: Antifungal activity against Aspergillus fumigatus NRRL5109 infected in pig cornea assessed as suppression of fungal growth at 0.1 % administered post fungal infection measured after 4 days by microscopic analysis. Format: functional, organism-based. The note with it: time 4.0 day.

≈ marks a conversion by molar mass, not a printed value. Calls of active or inactive are those of the source. The calls are words filed in the database; no cut-off is given here.

The MFC is the lowest tested concentration that kills the fungus rather than only halting it. The term MIC80 denotes an inhibitory concentration at the 80% level, which refers to growth in some studies and to a panel of isolates in others. Take `C[C@@H]1[C@H](O)[C@@H](C)/C=C/C=C/C=C/C=C/C=C/C=C/C=C/[C@H](O[C@@H]2O[C@H](C)[C@@H](O)[C@H](N)[C@@H]2O)C[C@@H]2O[C@](O)(C[C@@H](O)C[C@@H](O)[C@H](O)CC[C@@H](O)C[C@@H](O)CC(=O)O[C@H]1C)C[C@H](O)[C@H]2C(=O)O` [AMPHOTERICIN B]: in data set [1], the MFC was above 10 µM. Moreover, the MIC80 in data set [1] is above 10 µM; in [2] it was below 0.2 µM; in data set [3] it was 2.5 µM (≈ 2.31 µg/mL); in data set [4] it was 2.5 µM (≈ 2.31 µg/mL).

For the molecule `CC[C@H](C)C[C@H](C)C[C@H](C)C[C@@H]1NC(=O)[C@H](C(C)C)N(C)C(=O)[C@@H]([C@H](C)CC)OC(=O)[C@H](C(C)(C)O)N(C)C(=O)[C@H](CC(C)C)NC(=O)[C@H](C(C)C)N(C)C(=O)[C@H]([C@H](C)CC)NC(=O)[C@@H]2CCCN2C(=O)CN(C)C1=O`, the outcome in data set [5], in data set [6] and in data set [9] was Active. For the same molecule, the MFC in data set [1] was above 10 µM. The MIC80 in data set [1] is 2.5 µM (≈ 2.69 µg/mL); in data set [2] it was 0.3 µM; in data set [3], 2.5 µM (≈ 2.69 µg/mL); in data set [4] it was 2.5 µM (≈ 2.69 µg/mL). Moreover, the Activity result in data set [7] and in data set [8] was “Non-Toxic” throughout.

(Values after ChEMBL document CHEMBL5390204, “Persephacin Is a Broad-Spectrum Antifungal Aureobasidin Metabolite That Overcomes Intrinsic Resistance in Aspergillus fumigatus” (J Nat Prod, 2023).)
